Blank lines part the entries; values can stand above or below the molecule they belong to.
Key:
[1] = system: CYP1A (NCMN O-demethylation); experiment: Inhibition of NCMN-O-demethylation by CYP inhibitors in rat liver microsomes; conditions: rat, rat liver microsomes, pH 7.4, probe NCMN (various concentrations; formation of NCHN)
[2] = system: CYP1A in rat liver microsomes (RLM); experiment: as above; conditions: RLM; 10 µM NCMN; 100 µM furafylline, 10 µM sulfaphenazole, 200 µM troleandomycin, 500 µM 1-ABT
[3] = biological target: T1, CYP1A (NCMN O-demethylation) (Mus musculus, UniProt P00186); experiment: Inhibition of NCMN-O-demethylation by CYP inhibitors in mouse liver microsomes; conditions: mouse, pH 7.4
T1 sequence (P00186 2-513): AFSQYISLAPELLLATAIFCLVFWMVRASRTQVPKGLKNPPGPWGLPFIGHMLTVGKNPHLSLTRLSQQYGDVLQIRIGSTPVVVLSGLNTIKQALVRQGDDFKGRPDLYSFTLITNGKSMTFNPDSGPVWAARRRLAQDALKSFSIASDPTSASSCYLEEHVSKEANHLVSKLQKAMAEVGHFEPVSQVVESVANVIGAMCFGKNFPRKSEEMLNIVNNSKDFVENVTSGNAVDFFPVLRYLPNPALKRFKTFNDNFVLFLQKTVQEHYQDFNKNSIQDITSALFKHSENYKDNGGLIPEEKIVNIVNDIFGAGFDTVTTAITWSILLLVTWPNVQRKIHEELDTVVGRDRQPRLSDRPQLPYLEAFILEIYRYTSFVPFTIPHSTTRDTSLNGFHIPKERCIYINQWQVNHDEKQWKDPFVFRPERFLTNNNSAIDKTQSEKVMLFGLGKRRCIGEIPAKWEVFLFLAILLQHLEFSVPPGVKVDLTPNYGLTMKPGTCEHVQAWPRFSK

[4] = biological target: T2, CYP1A in mouse liver microsomes (MLM) (Mus musculus, UniProt P00186); experiment: as above; conditions: MLM; 10 µM NCMN; 100 µM furafylline, 10 µM sulfaphenazole, 200 µM troleandomycin, 500 µM 1-ABT
T2 sequence (P00186 2-513): T1 sequence (P00186 2-513)

[5] = system: CYP1A (NCMN O-demethylation); experiment: Inhibition of NCMN-O-demethylation by CYP inhibitors in minipig liver microsomes; conditions: minipig, pig, minipig liver microsomes, pH 7.4, probe NCMN (various concentrations; formation of NCHN)
[6] = system: CYP1A in minipig liver microsomes (PLM); experiment: as above; conditions: PLM; 10 µM NCMN; 100 µM furafylline, 10 µM sulfaphenazole, 200 µM troleandomycin, 500 µM 1-ABT
[7] = biological target: T3, CYP1A (NCMN O-demethylation) (Canis lupus familiaris, UniProt P56592); experiment: Inhibition of NCMN-O-demethylation by CYP inhibitors in beagle dog liver microsomes; conditions: beagle, dog, pH 7.4
T3 sequence (P56592 2-512): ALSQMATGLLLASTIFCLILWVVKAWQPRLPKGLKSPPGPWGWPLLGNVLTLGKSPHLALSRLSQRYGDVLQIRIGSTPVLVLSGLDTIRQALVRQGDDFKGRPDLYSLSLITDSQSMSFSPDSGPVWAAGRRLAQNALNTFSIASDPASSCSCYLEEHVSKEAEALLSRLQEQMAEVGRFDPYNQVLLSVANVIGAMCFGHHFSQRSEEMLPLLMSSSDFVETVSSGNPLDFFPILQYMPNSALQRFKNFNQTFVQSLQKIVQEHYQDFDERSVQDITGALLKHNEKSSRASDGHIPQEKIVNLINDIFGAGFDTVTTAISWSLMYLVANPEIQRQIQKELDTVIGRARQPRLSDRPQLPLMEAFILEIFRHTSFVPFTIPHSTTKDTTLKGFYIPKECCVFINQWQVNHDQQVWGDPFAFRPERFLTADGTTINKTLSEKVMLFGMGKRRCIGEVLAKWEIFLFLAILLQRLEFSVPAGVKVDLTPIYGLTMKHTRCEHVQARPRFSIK

[8] = biological target: T4, CYP1A in beagle dog liver microsomes (DLM) (Canis lupus familiaris, UniProt P56592); experiment: as above; conditions: DLM; 10 µM NCMN; 100 µM furafylline, 10 µM sulfaphenazole, 200 µM troleandomycin, 500 µM 1-ABT
T4 sequence (P56592 2-512): T3 sequence (P56592 2-512)

[9] = system: CYP1A (NCMN O-demethylation); experiment: Inhibition of NCMN-O-demethylation by CYP inhibitors in cynomolgus monkey liver microsomes; conditions: cynomolgus monkey, cynomolgus monkey liver microsomes, pH 7.4, probe NCMN (various concentrations; formation of NCHN)
[10] = system: CYP1A in cynomolgus monkey liver microsomes (CyLM); experiment: as above; conditions: CyLM; 10 µM NCMN; 100 µM furafylline, 10 µM sulfaphenazole, 200 µM troleandomycin, 500 µM 1-ABT
[11] = biological target: T5, CYP1A in human liver microsomes (HLM) (Homo sapiens, UniProt P05177); experiment: Inhibition of NCMN-O-demethylation by CYP inhibitors in human liver microsomes; conditions: 10 µM NCMN, 100 µM furafylline, 10 µM sulfaphenazole, 200 µM troleandomycin, 500 µM 1-ABT
T5 sequence (P05177 2-516): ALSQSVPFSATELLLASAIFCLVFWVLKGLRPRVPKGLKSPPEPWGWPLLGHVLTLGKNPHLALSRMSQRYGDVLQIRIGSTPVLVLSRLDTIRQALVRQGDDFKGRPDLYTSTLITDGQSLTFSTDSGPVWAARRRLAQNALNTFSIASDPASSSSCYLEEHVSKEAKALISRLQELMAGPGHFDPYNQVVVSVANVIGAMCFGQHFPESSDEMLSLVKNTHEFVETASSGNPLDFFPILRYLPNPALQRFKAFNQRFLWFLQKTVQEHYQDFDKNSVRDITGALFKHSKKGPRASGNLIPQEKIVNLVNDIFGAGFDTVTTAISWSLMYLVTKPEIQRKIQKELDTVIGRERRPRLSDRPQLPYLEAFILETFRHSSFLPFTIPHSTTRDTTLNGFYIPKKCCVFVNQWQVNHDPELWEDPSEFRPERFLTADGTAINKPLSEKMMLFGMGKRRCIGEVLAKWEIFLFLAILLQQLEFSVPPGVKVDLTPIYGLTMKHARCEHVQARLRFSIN

[12] = substrate: COc1ccc2c3c(cccc13)C(=O)N(CCCC(=O)O)C2=O; experiment: Kinetic analysis of NCMN-O-demethylation in human CYP1A2; type: in vitro ADME; conditions: other: CYP1A2 (human); substrate 1-150 µM; pH 7.4; 37.0 °C
Experimental: (§1) The formation rates of NCHN were within the linear range of the protein concentration and incubation time. NCMN (1, 2.5, 5, 7.5, 10, 25, 50, 75, 100 and 150 µM) was incubated with HLM, MLM, RLM, DLM, PLM, CyLM (0.25mg protein/mL) as well as rat CYP1A2 (100 nM) for 30min. […] .

[13] = substrate: COc1ccc2c3c(cccc13)C(=O)N(CCCC(=O)O)C2=O; experiment: Kinetic analysis of NCMN-O-demethylation in cDNA-expressed rat CYP1A2; type: in vitro ADME; conditions: other: CYP1A2 (Rat), 100 nM; Michaelis-Menten; substrate 1-150 µM; pH 7.4; 37.0 °C
Experimental: as §1

Molecule: Cc1nc2c([nH]1)c(=O)n(C)c(=O)n2Cc1ccco1 [furafylline]
Inhibition of the formation of NCHN [2]: near completely
IC50 [3]: 5.73 µM
Inhibition of the formation of NCHN [4]: near completely
Inhibition of the formation of NCHN [6]: lower inhibitory effects
IC50 [7]: 26.8 µM
Inhibition of the formation of NCHN [8]: lower inhibitory effects
Inhibition of the formation of NCHN [10]: lower inhibitory effects

Inhibition of the formation of NCHN [2]: potently inhibit
Inhibition of the formation of NCHN [4]: potently inhibit
Inhibition of the formation of NCHN [6]: potently inhibit
Inhibition of the formation of NCHN [8]: potently inhibit
Inhibition of the formation of NCHN [10]: potently inhibit
Molecule: Nn1nnc2ccccc21 [ABT, 1-Aminobenzotriazole]

Inhibition of the formation of NCHN [2]: less than 25%
Inhibition of the formation of NCHN [11]: less than 25%
Inhibition of the formation of NCHN [4]: less than 25%
Inhibition of the formation of NCHN [6]: less than 25%
Inhibition of the formation of NCHN [8]: less than 25%
Inhibition of the formation of NCHN [10]: less than 25%
Molecule: Nc1ccc(S(=O)(=O)Nc2ccnn2-c2ccccc2)cc1 [sulfaphenazole]

B1: CYP1A2 (human) (Homo sapiens) (protein)
chain: MALSQSVPFSATELLLASAIFCLVFWVLKGLRPRVPKGLKSPPEPWGWPLLGHVLTLGKNPHLALSRMSQRYGDVLQIRIGSTPVLVLSRLDTIRQALVRQGDDFKGRPDLYTSTLITDGQSLTFSTDSGPVWAARRRLAQNALNTFSIASDPASSSSCYLEEHVSKEAKALISRLQELMAGPGHFDPYNQVVVSVANVIGAMCFGQHFPESSDEMLSLVKNTHEFVETASSGNPLDFFPILRYLPNPALQRFKAFNQRFLWFLQKTVQEHYQDFDKNSVRDITGALFKHSKKGPRASGNLIPQEKIVNLVNDIFGAGFDTVTTAISWSLMYLVTKPEIQRKIQKELDTVIGRERRPRLSDRPQLPYLEAFILETFRHSSFLPFTIPHSTTRDTTLNGFYIPKKCCVFVNQWQVNHDPELWEDPSEFRPERFLTADGTAINKPLSEKMMLFGMGKRRCIGEVLAKWEIFLFLAILLQQLEFSVPPGVKVDLTPIYGLTMKHARCEHVQARLRFSIN
Km [12]: 9.80 ± 0.67 µM
kcat [12]: 32.06 ± 0.50 nmol/min/nmol CYP

B2: CYP1A2 (Rat) (Rattus norvegicus) (protein)
chain: MAFSQYISLAPELLLATAIFCLVFWVLRGTRTQVPKGLKSPPGPWGLPFIGHMLTLGKNPHLSLTKLSQQYGDVLQIRIGSTPVVVLSGLNTIKQALVKQGDDFKGRPDLYSFTLITNGKSMTFNPDSGPVWAARRRLAQDALKSFSIASDPTSVSSCYLEEHVSKEANHLISKFQKLMAEVGHFEPVNQVVESVANVIGAMCFGKNFPRKSEEMLNLVKSSKDFVENVTSGNAVDFFPVLRYLPNPALKRFKNFNDNFVLFLQKTVQEHYQDFNKNSIQDITGALFKHSENYKDNGGLIPQEKIVNIVNDIFGAGFETVTTAIFWSILLLVTEPKVQRKIHEELDTVIGRDRQPRLSDRPQLPYLEAFILEIYRYTSFVPFTIPHSTTRDTSLNGFHIPKECCIFINQWQVNHDEKQWKDPFVFRPERFLTNDNTAIDKTLSEKVMLFGLGKRRCIGEIPAKWEVFLFLAILLHQLEFTVPPGVKVDLTPSYGLTMKPRTCEHVQAWPRFSK
notes: purchased Research Institute for Liver Diseases (RILD, Shanghai, China) Lot.int066e1c
Km [13]: 4.04 ± 0.16 µM
kcat [13]: 7.48±0.05 nmol/min/nmol CYP
